Values of other authors, collected in paper PMC3222680 (PLoS ONE, 2011).

Tested on: α1 β GlyRs with cysteine mutations in the M2–M3 loop of the β subunit
Conditions: cysteine-substituted α1 β GlyRs (β subunit M2–M3 loop) ref 22; cited from earlier work

For C[N+](C)(C)CCSS(C)(=O)=O [MTSET, 2-trimethylammoniumethylmethane thiosulfonate], which “channel function in response to MTSET treatment” value is on record?
Its value is “did not change”.
